By Kb is commonly meant the affinity of an antagonist, worked out from how it opposes an agonist. Low readings indicate higher antagonist affinity, high ones lower antagonist affinity. A word on the melting point: it is the temperature of the solid-liquid transition.

The text below walks through data of patent publication US10005736B1, “Pyridine and pyrimidine derivatives” (Hoffmann-La Roche Inc., priority 2015, dated 2018).

In one series the target is T1, human EAAT3 (Homo sapiens, UniProt P43005).
T1 construct: expressed in transfected cells; host or cells: HEK-293
T1 sequence (P43005 1-524): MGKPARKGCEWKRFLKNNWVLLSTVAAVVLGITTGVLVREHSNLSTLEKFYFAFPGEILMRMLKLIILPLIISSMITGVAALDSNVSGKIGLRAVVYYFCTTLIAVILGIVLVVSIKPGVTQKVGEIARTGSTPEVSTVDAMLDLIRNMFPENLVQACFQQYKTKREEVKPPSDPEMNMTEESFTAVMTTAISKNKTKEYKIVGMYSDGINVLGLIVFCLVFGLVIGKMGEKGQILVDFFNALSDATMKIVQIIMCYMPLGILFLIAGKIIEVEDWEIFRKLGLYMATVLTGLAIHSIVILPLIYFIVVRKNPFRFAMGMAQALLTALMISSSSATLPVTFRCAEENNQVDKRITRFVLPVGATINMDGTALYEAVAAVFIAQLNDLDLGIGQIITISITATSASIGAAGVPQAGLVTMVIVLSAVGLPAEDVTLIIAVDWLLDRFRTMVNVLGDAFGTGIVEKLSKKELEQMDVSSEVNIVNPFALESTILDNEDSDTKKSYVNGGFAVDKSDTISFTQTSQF
In words: FLIPR Membrane Potential (FMP) assay, antagonist potency at human EAAT3. The conditions noted are these: HEK-293 cells stably expressing human EAAT3; L-glutamate as agonist at EC80; antagonists applied 15 min before; Kb by Cheng-Prusoff from IC50. The series is classed as cell-based. How it is done: The FLIPR Membrane Potential (FMP) Assay
HEK-293 cells stably expressing human EAAT3 were seeded at 55 000 cells/well in growth medium (DMEM glutamate free (Invitrogen 11960-044), 1% Pen Strep (10 ml/1 GIBCO BRL N^o 15140-023), 10% FCS non dialysed heat inactivated, 5 mg/l puromycin) in poly-D-lysine treated 96-well black microtiter plates with clear-bottom. After 24 h, the growth medium was removed and […] of Krebs buffer (140 mM NaCl, 4.7 mM KCl, 2.5 mM CaCl2, 1.2 mM MgCl2, 11 mM HEPES, 10 mM D-glucose, pH=7.4) added. The cells were then loaded by adding 100 μl/well FMP assay dye (FLIPR Membrane Potential assay reagent, Molecular Devices). The 96-well plates were then incubated at 37° C. for 1 h. The depolarization of the cells will cause more dye to enter in the cells, where it will bind to intracellular proteins and lipids and cause an increase in the fluorescence signal. Antagonist potency at human EAAT3 was determined by using L-glutamate as agonist at a concentration which gives 80% of the maximum response. The antagonists were applied 15 min before the application of the agonist L-glutamate. The assays were performed at room temperature and measurements done by using a Fluorometric Imaging Plate Reader (FLIPR, Molecular Devices) and filter #2. Responses were measured as peak increase in fluorescence minus basal (i.e. fluorescence without addition of L-glutamate). Kb was determined using the Cheng-Prusoff equation Kb=IC50/[1+(A/EC50)], where IC50 is the concentration of the antagonist producing 50% inhibition, A is the concentration of the agonist against which the IC50 is being determined (at EC80) and EC50 is the concentration of the agonist producing 50% […].

`CC(C)c1ncncc1-c1cc(C(=O)NC(C)(C)C(F)(F)F)cc(-c2ccc(Cl)cc2)c1` [Example 18, 3-(4-Chlorophenyl)-5-(4-propan-2-ylpyrimidin-5-yl)-N-(1,1,1-trifluoro-2-methylpropan-2-yl)-benzamide] came in with a melting point of 170 °C. The compound further gave an antagonist dissociation constant (Kb) at human EAAT3 of 250 nM.

For `CC(C)c1ncncc1-c1cc(C(=O)NC(C)(C)C)cc(-c2ccc(C(F)(F)F)cc2)c1` [Example 28, N-tert-Butyl-3-(4-propan-2-ylpyrimidin-5-yl)-5-[4-(trifluoromethyl)-phenyl]-benzamide], the melting point stood at 168 °C. At human EAAT3, this compound displayed a Kb of 310 nM.

Consider `CC(C)c1ncncc1-c1cc(C(=O)NC(C)(C)C2CC2)cc(-c2ccc(F)cc2)c1` [Example 22, N-(2-Cyclopropylpropan-2-yl)-3-(4-fluorophenyl)-5-(4-propan-2-ylpyrimidin-5-yl)-benzamide], for which the melting point is 74 °C. In addition, at human EAAT3, the Kb came to 57 nM.

In the case of `CC(C)(C)NC(=O)c1cc(-c2ccc(Cl)cc2)cc(-c2cncnc2C2CC2)c1` [Example 39, N-tert-Butyl-3-(4-chlorophenyl)-5-(4-cyclopropyl-pyrimidin-5-yl)-benzamide], the melting point came out at 96 °C. The compound further registered a Kb at human EAAT3 of 270 nM.

In turn, `Cc1ccncc1-c1cc(C(=O)NC(C)(C)C)cc(-c2ccc(F)cc2)c1` [Example 21, N-tert-Butyl-3-(4-fluorophenyl)-5-(4-methylpyridin-3-yl)-benzamide] displayed a melting point of 83 °C. Besides, the Kb on human EAAT3 was found to be 200 nM.

For the compound `CC(C)c1ncncc1-c1cc(C(=O)NC(C)(C)C)cc(-c2ccc(Cl)cc2)c1` [Example 11, N-tert-Butyl-3-(4-chlorophenyl)-5-(4-propan-2-ylpyrimidin-5-yl)-benzamide], the melting point was determined as 182 °C. Moreover, the Kb on human EAAT3 was determined as 230 nM.

Take `Cc1ccc(-c2cc(C(=O)NC(C)(C)C)cc(-c3cncnc3C(C)C)c2)cc1F` [Example 30, N-tert-Butyl-3-(3-fluoro-4-methylphenyl)-5-(4-propan-2-ylpyrimidin-5-yl)-benzamide]: the melting point was 90 °C. Also, the Kb on human EAAT3 stood at 770 nM.

For the compound `CC(C)c1ncncc1-c1cc(C(=O)NC(C)(C)C#N)cc(-c2ccc(F)cc2)c1` [Example 36, N-(2-Cyanopropan-2-yl)-3-(4-fluorophenyl)-5-(4-propan-2-yl-pyrimidin-5-yl)-benzamide], the melting point came out at 97 °C. At human EAAT3, this compound showed an antagonist equilibrium constant (Kb) of 270 nM.

As for `CC(C)(C)NC(=O)c1cc(-c2ccc(Cl)cc2)cc(-c2cncnc2)c1` [Example 10, N-tert-Butyl-3-(4-chlorophenyl)-5-pyrimidin-5-ylbenzamide], the melting point was 195 °C. Besides, on human EAAT3, the antagonist dissociation constant (Kb) was 270 nM.

On to `CC(C)c1ccncc1-c1cc(C(=O)NC(C)(C)C)cc(-c2ccc(Cl)cc2)c1` [Example 9, N-tert-Butyl-3-(4-chlorophenyl)-5-(4-propan-2-ylpyridin-3-yl)-benzamide], for which the melting point was 148 °C. The same compound displayed a Kb on human EAAT3 of 540 nM.

`CC(C)c1ncncc1-c1cc(C(=O)NC(C)(C)C)cc(-c2ccc(F)cc2)c1` [Example 20, N-tert-Butyl-3-(4-fluorophenyl)-5-(4-propan-2-ylpyrimidin-5-yl)-benzamide] displayed a melting point of 79 °C. Besides, the Kb at human EAAT3 amounted to 81 nM.

Compound `Cc1cc(-c2cc(C(=O)NC(C)(C)C)cc(-c3cncnc3C(C)C)c2)ccc1F` [Example 29, N-tert-Butyl-3-(4-fluoro-3-methylphenyl)-5-(4-propan-2-ylpyrimidin-5-yl)-benzamide] showed a melting point of 83 °C. Further, at human EAAT3, the Kb worked out at 720 nM.

Consider `CC(C)c1ncncc1-c1cc(C(=O)NC(C)(C)C)cc(-c2ccc(Cl)c(F)c2)c1` [Example 31, N-tert-Butyl-3-(4-chloro-3-fluorophenyl)-5-(4-propan-2-ylpyrimidin-5-yl)-benzamide], for which the melting point was determined as 93 °C. Besides, the Kb at human EAAT3 worked out at 320 nM.

For `COc1ccc(-c2cc(C(=O)NC(C)(C)C)cc(-c3cncnc3C(C)C)c2)cc1` [Example 33, N-tert-Butyl-3-(4-methoxyphenyl)-5-(4-propan-2-ylpyrimidin-5-yl)-benzamide], the melting point was 84 °C. Further, the Kb at human EAAT3 was 540 nM.

Compound `CC(C)c1ncncc1-c1cc(C(=O)NC(C)(C)C)cc(-c2ccc(C#N)cc2)c1` [Example 32, N-tert-Butyl-3-(4-cyanophenyl)-5-(4-propan-2-ylpyrimidin-5-yl)-benzamide] gave a melting point of 98 °C. The compound also yielded a Kb on human EAAT3 of 570 nM.

Regarding `CC(C)c1ncncc1-c1cc(C(=O)NC(C)(C)C)cc(-c2ccc(F)c(F)c2)c1` [Example 26, N-tert-Butyl-3-(3,4-difluorophenyl)-5-(4-propan-2-ylpyrimidin-5-yl)-benzamide], the melting point is 80 °C. The compound further returned a Kb on human EAAT3 of 100 nM.

`CC(C)c1ncncc1-c1cc(C(=O)NC(C)(C)C)cc(-c2ccc(C3CC3)cc2)c1` [Example 27, N-tert-Butyl-3-(4-cyclopropylphenyl)-5-(4-propan-2-ylpyrimidin-5-yl)-benzamide] returned a melting point of 91.5 °C. This compound registered a Kb on human EAAT3 of 180 nM.

Compound `Cc1ccc(-c2cc(C(=O)NC(C)(C)C)cc(-c3cncnc3C(C)C)c2)cc1` [Example 25, N-tert-Butyl-3-(4-methylphenyl)-5-(4-propan-2-ylpyrimidin-5-yl)-benzamide] displayed a melting point of 91 °C. The same compound displayed an antagonist equilibrium constant (Kb) on human EAAT3 of 250 nM.

Regarding `Cc1ccncc1-c1cc(C(=O)NC(C)(C)C2CC2)cc(-c2ccc(F)cc2)c1` [Example 23, N-(2-Cyclopropylpropan-2-yl)-3-(4-fluorophenyl)-5-(4-methylpyridin-3-yl)-benzamide], the melting point turned out to be 76 °C. Besides, the Kb on human EAAT3 came out at 78 nM.

`Cc1ccc(-c2cc(C(=O)NC(C)(C)C#N)cc(-c3cncnc3C(C)C)c2)cc1F` [Example 34, N-(2-Cyanopropan-2-yl)-3-(3-fluoro-4-methylphenyl)-5-(4-propan-2-yl-pyrimidin-5-yl)-benzamide] came in with a melting point of 102.5 °C. For the same compound, the antagonist equilibrium constant (Kb) on human EAAT3 is 400 nM.
